Laboratory results: patent publication US20250145594A1, “MODULATORS OF THE INTEGRATED STRESS PATHWAY” (Calico Life Sciences LLC, priority 2020, published 2025)

System: ATF4 luciferase reporter in HEK293T cells
Experiment: ATF4-Luc assay (in vitro model of VWMD)
Type: cell-based, human
Conditions: Homo sapiens, HEK-293T, 7 h, HEK293T cells carrying the ATF4 luciferase reporter, 1 μg/mL tunicamycin, One Glo luminescence
Method in brief: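 Stable HEK293T line expressing firefly luciferase behind the human ATF4 5′-UTR, treated with 1 μg/mL tunicamycin plus compound for 7 hours. Luminescence read with One Glo; EC50 determined.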

SMILES	EC50 [nM]
O=C(NC12CC(n3cc(C(=O)N4CC[C@@H](OC(F)F)C4)cn3)(C1)C2)[C@H]1C[C@@H](O)c2cc(Cl)ccc2O1 [Compound 399, (2R,4R)-6-chloro-N-(3-{4-[(3R)-3-(difluoromethoxy)pyrrolidine-1-carbonyl]-1H-pyrazol-1-yl}bicyclo[1.1.1]pentan-1-yl)-4-hydroxy-3,4-dihydro-2H-1-benzopyran-2-carboxamide]	250 to 500
O=C(COc1ccc(Cl)c(F)c1)NC12CC(n3cc([C@H]4[C@@H]5CN(CC(F)(F)F)C[C@@H]54)cn3)(C1)C2 [Compound 625, 2-(4-chloro-3-fluorophenoxy)-N-(3-{4-[(1R,5S,6s)-3-(2,2,2-trifluoroethyl)-3-azabicyclo[3.1.0]hexan-6-yl]-1H-pyrazol-1-yl}bicyclo[1.1.1]pentan-1-yl)acetamide]	< 10
O=C(NC12CC(n3cc(OCCOC(F)(F)F)cn3)(C1)C2)[C@H]1C[C@@H](O)c2cc(F)c(F)cc2O1 [Compound 429, (2R,4R)-6,7-difluoro-4-hydroxy-N-(3-{4-[2-(trifluoromethoxy)ethoxy]-1H-pyrazol-1-yl}bicyclo[1.1.1]pentan-1-yl)-3,4-dihydro-2H-1-benzopyran-2-carboxamide]	< 10
O=C(COc1cc(F)c(Cl)c(Br)c1)N[C@H]1C[C@H]2C[C@@H]1C[C@@H]2NC(=O)CO[C@H]1C[C@@H](OC(F)(F)F)C1 [Compound 381, 2-(3-bromo-4-chloro-5-fluorophenoxy)-N-[(1R,2S,4R,5S)-5-(2-{[cis-3-(trifluoromethoxy)cyclobutyl]oxy}acetamido)bicyclo[2.2.1]heptan-2-yl]acetamide]	10 to 50
O=C(NC12CC(n3cc(N4CC(OC(F)(F)F)C4)cn3)(C1)C2)[C@H]1C[C@@H](O)c2cc(Cl)ccc2O1 [Compound 352, (2R,4R)-6-chloro-4-hydroxy-N-(3-{4-[3-(trifluoromethoxy)azetidin-1-yl]-1H-pyrazol-1-yl}bicyclo[1.1.1]pentan-1-yl)-3,4-dihydro-2H-1-benzopyran-2-carboxamide]	10 to 50
O=C(NC12CC(n3cc4cc(OC(F)(F)F)ccc4n3)(C1)C2)[C@H]1C[C@@H](O)c2cc(Cl)ccc2O1 [Compound 509, (2R,4R)-6-chloro-4-hydroxy-N-{3-[5-(trifluoromethoxy)-2H-indazol-2-yl]bicyclo[1.1.1]pentan-1-yl}-3,4-dihydro-2H-1-benzopyran-2-carboxamide]	10 to 50
O=C(COc1ccc(Cl)c(F)c1)NC12CCC(n3cc(OCCOC(F)(F)F)cn3)(C1)C2 [Compound 595, 2-(4-chloro-3-fluorophenoxy)-N-(4-{4-[2-(trifluoromethoxy)ethoxy]-1H-pyrazol-1-yl}bicyclo[2.1.1]hexan-1-yl)acetamide]	250 to 500
O=C(NC12CC(n3cc(-c4ccc(OC(F)(F)F)nc4)cn3)(C1)C2)[C@@H]1C[C@@H](O)c2cc(Cl)ccc2O1 [Compound 351, (2S,4R)-6-chloro-4-hydroxy-N-(3-{4-[6-(trifluoromethoxy)pyridin-3-yl]-1H-pyrazol-1-yl}bicyclo[1.1.1]pentan-1-yl)-3,4-dihydro-2H-1-benzopyran-2-carboxamide]	< 10
O=C(NC12CC(n3cc(-c4ccc(C(F)(F)F)cn4)cn3)(C1)C2)[C@H]1C[C@@H](O)c2cc(Cl)ccc2O1 [Compound 364, (2R,4R)-6-chloro-4-hydroxy-N-(3-{4-[5-(trifluoromethyl)pyridin-2-yl]-1H-pyrazol-1-yl}bicyclo[1.1.1]pentan-1-yl)-3,4-dihydro-2H-1-benzopyran-2-carboxamide]	< 10
COc1ccc2nn(C34CC(NC(=O)[C@H]5C[C@@H](O)c6cc(Cl)ccc6O5)(C3)C4)cc2c1 [Compound 501, (2R,4R)-6-chloro-4-hydroxy-N-[3-(5-methoxy-2H-indazol-2-yl)bicyclo[1.1.1]pentan-1-yl]-3,4-dihydro-2H-1-benzopyran-2-carboxamide]	10 to 50
O=C(NC12CC(n3cc([C@H]4C[C@@H](OC(F)(F)F)C4)nn3)(C1)C2)[C@H]1C[C@@H](O)c2cc(Cl)ccc2O1 [Compound 385, (2R,4R)-6-chloro-4-hydroxy-N-(3-{4-[cis-3-(trifluoromethoxy)cyclobutyl]-1H-1,2,3-triazol-1-yl}bicyclo[1.1.1]pentan-1-yl)-3,4-dihydro-2H-1-benzopyran-2-carboxamide]	< 10
O=C(NC12CC(n3cc4c(n3)CN(CCOC(F)(F)F)C4)(C1)C2)[C@H]1C[C@@H](O)c2cc(Cl)c(F)cc2O1 [Compound 512, (2R,4R)-6-chloro-7-fluoro-4-hydroxy-N-(3-{5-[2-(trifluoromethoxy)ethyl]-5,6-dihydropyrrolo[3,4-c]pyrazol-2(4H)-yl}bicyclo[1.1.1]pentan-1-yl)-3,4-dihydro-2H-1-benzopyran-2-carboxamide]	10 to 50
O=C(NC12CC(n3cc(OCCOC(F)(F)F)cn3)(C1)C2)C1COc2cc(Cl)c(Cl)cc2O1 (stereo not shown) [Compound 458, 6,7-dichloro-N-(3-{4-[2-(trifluoromethoxy)ethoxy]-1H-pyrazol-1-yl}bicyclo[1.1.1]pentan-1-yl)-2,3-dihydro-1,4-benzodioxine-2-carboxamide]	10 to 50
O=C(N[C@H]1C[C@@H](OC(F)(F)F)C1)c1cnn(C23CC(NC(=O)[C@H]4C[C@@H](O)c5cc(Cl)ccc5O4)(C2)C3)c1 [Compound 376, 1-(3-{[(2R,4R)-6-chloro-4-hydroxy-3,4-dihydro-2H-1-benzopyran-2-carbonyl]amino}bicyclo[1.1.1]pentan-1-yl)-N-[cis-3-(trifluoromethoxy)cyclobutyl]-1H-pyrazole-4-carboxamide]	50 to 250
O=C(NC12CC(n3cc(-c4ccc(OC(F)(F)F)cn4)cn3)(C1)C2)[C@@H]1C[C@@H](O)c2cc(Cl)c(F)cc2O1 [Compound 474, (2S,4R)-6-chloro-7-fluoro-4-hydroxy-N-(3-{4-[5-(trifluoromethoxy)pyridin-2-yl]-1H-pyrazol-1-yl}bicyclo[1.1.1]pentan-1-yl)-3,4-dihydro-2H-1-benzopyran-2-carboxamide]	< 10
O=C(COC12CC(NC(=O)[C@H]3C[C@@H](O)c4cc(Cl)ccc4O3)(C1)C2)N[C@H]1C[C@@H](OC(F)(F)F)C1 [Compound 342, (2R,4R)-6-chloro-4-hydroxy-N-[3-(2-oxo-2-{[cis-3-(trifluoromethoxy)cyclobutyl]amino}ethoxy)bicyclo[1.1.1]pentan-1-yl]-3,4-dihydro-2H-1-benzopyran-2-carboxamide]	10 to 50
O=C(NC12CC(n3cc([C@H]4CC[C@@H](OC(F)(F)F)C4)nn3)(C1)C2)[C@H]1C[C@@H](O)c2cc(Cl)ccc2O1 (relative stereo) [Compound 540, (2R,4R)-6-chloro-4-hydroxy-N-(3-{4-[(1S*,3R*)-3-(trifluoromethoxy)cyclopentyl]-1H-1,2,3-triazol-1-yl}bicyclo[1.1.1]pentan-1-yl)-3,4-dihydro-2H-1-benzopyran-2-carboxamide]	10 to 50
O=C(NC12CC(n3cc([C@H]4[C@@H]5CN(CC(F)(F)F)C[C@@H]54)cn3)(C1)C2)[C@H]1C[C@@H](O)c2cc(Cl)ccc2O1 [Compound 583, (2R,4R)-6-chloro-4-hydroxy-N-(3-{4-[(1R,5S,6s)-3-(2,2,2-trifluoroethyl)-3-azabicyclo[3.1.0]hexan-6-yl]-1H-pyrazol-1-yl}bicyclo[1.1.1]pentan-1-yl)-3,4-dihydro-2H-1-benzopyran-2-carboxamide]	< 10
O=C(NC12CC(n3cc(OCCOC(F)(F)F)cn3)(C1)C2)[C@H]1C[C@H](O)c2cc(Cl)ccc2O1 [Compound 632, (2R,4S)-6-chloro-4-hydroxy-N-(3-{4-[2-(trifluoromethoxy)ethoxy]-1H-pyrazol-1-yl}bicyclo[1.1.1]pentan-1-yl)-3,4-dihydro-2H-1-benzopyran-2-carboxamide]	10 to 50
O=C(NC12CC(n3cc(-c4cnc(C5CC5)nc4)cn3)(C1)C2)[C@H]1C[C@@H](O)c2cc(Cl)ccc2O1 [Compound 365, (2R,4R)-6-chloro-N-{3-[4-(2-cyclopropylpyrimidin-5-yl)-1H-pyrazol-1-yl]bicyclo[1.1.1]pentan-1-yl}-4-hydroxy-3,4-dihydro-2H-1-benzopyran-2-carboxamide]	< 10
O=C(NC12CC(n3cc(-c4ccc(C(F)(F)F)cn4)cn3)(C1)C2)[C@H]1C[C@H](O)c2cc(C(F)(F)F)c(F)cc2O1 [Compound 640, (2R,4S)-7-fluoro-4-hydroxy-6-(trifluoromethyl)-N-(3-{4-[5-(trifluoromethyl)pyridin-2-yl]-1H-pyrazol-1-yl}bicyclo[1.1.1]pentan-1-yl)-3,4-dihydro-2H-1-benzopyran-2-carboxamide]	< 10
O=C(N[C@H]1CC[C@H](n2cc(OCCCOC(F)(F)F)cn2)CC1)[C@H]1C[C@@H](O)c2cc(Cl)c(F)cc2O1 [Compound 422, (2R,4R)-6-chloro-7-fluoro-4-hydroxy-N-[(1r,4R)-4-{4-[3-(trifluoromethoxy)propoxy]-1H-pyrazol-1-yl}cyclohexyl]-3,4-dihydro-2H-1-benzopyran-2-carboxamide]	< 10
O=C(NC12CC(c3cnc(OCCCOC(F)(F)F)o3)(C1)C2)[C@H]1C[C@@H](O)c2cc(Cl)c(F)cc2O1 [Compound 417, (2R,4R)-6-chloro-7-fluoro-4-hydroxy-N-(3-{2-[3-(trifluoromethoxy)propoxy]-1,3-oxazol-5-yl}bicyclo[1.1.1]pentan-1-yl)-3,4-dihydro-2H-1-benzopyran-2-carboxamide]	< 10
O=C(N[C@H]1CC[C@H](n2cc(OCCCOC(F)(F)F)cn2)CC1)[C@H]1C[C@@H](O)c2cc(Cl)ccc2O1 [Compound 423, (2R,4R)-6-chloro-4-hydroxy-N-[(1r,4R)-4-{4-[3-(trifluoromethoxy)propoxy]-1H-pyrazol-1-yl}cyclohexyl]-3,4-dihydro-2H-1-benzopyran-2-carboxamide]	< 10
Cn1nc(C23CC(NC(=O)COc4ccc(Cl)c(F)c4)(C2)C3)cc1OC[C@H]1C[C@@H](OC(F)(F)F)C1 [Compound 387, 2-(4-chloro-3-fluorophenoxy)-N-[3-(1-methyl-5-{[cis-3-(trifluoromethoxy)cyclobutyl]methoxy}-1H-pyrazol-3-yl)bicyclo[1.1.1]pentan-1-yl]acetamide]	50 to 250
